Measured values published in PubChem BioAssay (NCI).
Where “and” joins values, the source holds several entries; their conditions need not be identical. Identical values can stand only once.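 Each compound was tested at five concentrations against cells in 96-well plates for 48 hours. GI50 marks 50% less growth. At the TGI there is no net growth.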

How the values were obtained:
Assay in all cases: DTP human tumour cell line panel, 48 h
[1] = test system: UO-31 renal
[2] = test system: KM20L2 colon
[3] = test system: COLO 205 colon
[4] = test system: SK-MEL-28 melanoma
[5] = test system: NCI-H23 lung
[6] = test system: LOX IMVI melanoma
[7] = test system: EKVX NSCLC
[8] = test system: DMS 114 small cell lung
[9] = test system: U251 CNS
[10] = test system: UACC-62 melanoma
[11] = test system: OVCAR-3 ovarian
[12] = test system: HCT-116 colon
[13] = test system: M19-MEL melanoma
[14] = test system: OVCAR-5 ovarian
[15] = test system: HT29 colon
[16] = test system: NCI-H460 lung
[17] = test system: HOP-62 NSCLC
[18] = test system: HCT-15 colon
[19] = test system: SNB-19 CNS
[20] = test system: OVCAR-4 ovarian
[21] = test system: SK-MEL-5 melanoma
[22] = test system: A549 NSCLC
[23] = test system: SF-268 CNS
[24] = test system: DMS 273 small cell lung
[25] = test system: HOP-92 NSCLC
[26] = test system: SR leukemia
[27] = test system: KM12 colon
[28] = test system: MOLT-4 leukemia
[29] = test system: SNB-75 CNS
[30] = test system: TK-10 renal
[31] = test system: HCC-2998 colon
[32] = test system: UACC-257 melanoma
[33] = test system: M14 melanoma
[34] = test system: HL-60(TB) leukemia
[35] = test system: SW-620 colon
[36] = test system: HOP-18 NSCLC
[37] = test system: RXF 393 renal
[38] = test system: LXFL 529 NSCLC
[39] = test system: IGROV1 ovarian
[40] = test system: RPMI-8226 leukemia
[41] = test system: SF-539 CNS
[42] = test system: K-562 leukemia
[43] = test system: SNB-78 CNS
[44] = test system: SK-MEL-2 melanoma
[45] = test system: OVCAR-8 ovarian
[46] = test system: ACHN renal
[47] = test system: SN12C renal
[48] = test system: CCRF-CEM leukemia
[49] = test system: SF-295 CNS
[50] = test system: NCI-H226 lung
[51] = test system: BT-549 breast
[52] = test system: T-47D breast
[53] = test system: 786-0 renal
[54] = test system: DLD-1 colon

O=C(O)CC/C(=N\Nc1nsc2ccccc12)c1ccccc1
TGI [1]: > 100 µM | TGI [2]: > 100 µM | TGI [3]: > 100 µM | TGI [4]: > 100 µM | TGI [5]: 95.8 µM | TGI [6]: > 100 µM | TGI [7]: > 100 µM | TGI [8]: 82 µM | TGI [9]: > 100 µM | TGI [10]: > 100 µM | TGI [11]: 75.3 µM | TGI [12]: > 100 µM | TGI [13]: > 100 µM | TGI [14]: > 100 µM | TGI [15]: > 100 µM | TGI [16]: > 100 µM | TGI [17]: > 100 µM | TGI [18]: > 100 µM | TGI [19]: > 100 µM | TGI [20]: > 100 µM | TGI [21]: > 100 µM | TGI [22]: > 100 µM | TGI [23]: > 100 µM | TGI [24]: 67.3 µM | TGI [25]: > 100 µM | TGI [26]: 93.3 µM | TGI [27]: > 100 µM | TGI [28]: 91.6 µM | TGI [29]: 61.3 µM | TGI [30]: > 100 µM | TGI [31]: 90.8 µM | TGI [32]: > 100 µM | TGI [33]: > 100 µM | TGI [34]: 71.9 µM | TGI [35]: > 100 µM | TGI [36]: > 100 µM | TGI [37]: > 100 µM | TGI [38]: > 100 µM | TGI [39]: > 100 µM | TGI [40]: 49.6 µM | TGI [41]: > 100 µM | TGI [42]: > 100 µM | TGI [43]: > 100 µM | TGI [44]: > 100 µM | TGI [45]: > 100 µM | TGI [46]: > 100 µM | TGI [47]: > 100 µM | TGI [48]: 96.7 µM

Nc1nc(=S)c2ncn(C3CC(O)C(CO)O3)c2[nH]1 (stereo not given)
TGI [2]: 421 µM and 2940 µM | TGI [4]: 594 µM and > 5000 µM | TGI [49]: 382 µM and 3310 µM | TGI [9]: 901 µM and > 4730 µM | TGI [13]: > 4680 µM | TGI [15]: > 466 µM and 2190 µM | GI50 [19]: 77.3 µM and 753 µM | TGI [19]: > 5000 µM | TGI [50]: 639 µM and > 5000 µM | TGI [23]: 555 µM and > 5000 µM | TGI [51]: 883 µM and 4760 µM | TGI [27]: 75 µM and 700 µM | TGI [29]: 377 µM and 3000 µM | TGI [35]: 385 µM and 3540 µM | TGI [52]: 438 µM and > 3110 µM | TGI [36]: > 983 µM and 4020 µM | TGI [53]: > 2350 µM | TGI [39]: 521 µM and 2870 µM | TGI [42]: 333 µM and 2590 µM | TGI [43]: > 5000 µM | TGI [54]: 340 µM and 1740 µM | TGI [47]: 353 µM and 3130 µM
